This test addresses T1, GPR84 (Homo sapiens, UniProt Q9NQS5).
T1 construct: expressed in transfected cells
Put plainly: GPR84 [35S]GTPγS binding assay, Tris buffer (alternative). Format: biochemical. Particulars: 3,3′ di indolylmethane at EC80, membranes from stable cell line over expressing GPR84, read-out: Alternative GPR84 assay GTPγS IC50 (GPR84-2). How it is done:
1.1. Cell Based Assay: GTp-γ S Binding Assay.
The following assay can be used for determination of GPR84 activation. The [^35S]GTPγS binding assay measures the level of G protein activation following agonist occupation of a GPCR, by determining the binding of the non-hydrolysable analog [^35S]GTPγS to Gα subunits.
Alternatively, the assay is performed in a 96 well plate where the following reagents are added. First 50 μL compound is added into the assay plate, followed by addition of 20 μL 3,3′ di indolylmethane at EC80 concentration (concentration which gives 80% of the activity of GPR84). In a last step, 30 μL of a mixture consisting of membranes-GTPγS-SpA beads is added [mixture consists of 20 μg/well membranes derived from stable cell line over expressing GPR84 (membranes are pre-incubated with 0.1 μM GDP for 15 min at 4° C.), 0.1 nM [^35S]GTPγS (Perkin Elmer, NEG030) and 0.5 mg/well PVT-WGA SpA beads (Perkin Elmer, RPNQ0001)]. All components are diluted in assay buffer containing 20 mM Tris pH 7.5; 5 mM MgCl2; 250 mM NaCl; 0.05% BSA; 75 ug/mL saponin Reactions are incubated for 90 min at room temperature followed by centrifugation at 2000 rpm during 15 min. Plates are read on a Topcount reader (Perkin Elmer) immediately after centrifugation (readout time, 1 min/well).
(In general: GTPγS is a poorly hydrolysed GTP analogue; its binding reports G protein activation.)

T1 sequence (Q9NQS5 whole entry): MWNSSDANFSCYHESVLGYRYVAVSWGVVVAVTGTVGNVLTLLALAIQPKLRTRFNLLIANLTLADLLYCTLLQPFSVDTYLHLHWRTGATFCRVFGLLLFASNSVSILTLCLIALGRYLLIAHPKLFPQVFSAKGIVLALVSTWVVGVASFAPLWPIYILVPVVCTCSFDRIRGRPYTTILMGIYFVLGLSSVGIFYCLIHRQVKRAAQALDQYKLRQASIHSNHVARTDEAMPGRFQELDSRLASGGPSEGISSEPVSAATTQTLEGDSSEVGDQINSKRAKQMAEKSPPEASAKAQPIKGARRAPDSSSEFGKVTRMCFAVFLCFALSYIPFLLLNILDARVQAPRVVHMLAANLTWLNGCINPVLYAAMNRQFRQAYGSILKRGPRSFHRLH

By IC50 is commonly meant the concentration needed to halve the response being measured. `O=c1nc(OCC2CCCO2)cc2n1CCc1cc(C#CC3CC3)ccc1-2` (centres unmarked) [compound 119, 9-cyclopropylethynyl-2-(tetrahydro-furan-2-ylmethoxy)-6,7-dihydro-pyrimido[6,1-a]isoquinolin-4-one]: the IC50 is 100 to 500 nM.
Take `CC(C)(C)C#Cc1ccc2c(c1)CCn1c-2cc(OCC2CCCO2)nc1=O` (centres unmarked) [compound 120, 9-(3,3-dimethyl-but-1-ynyl)-2-(tetrahydro-furan-2-ylmethoxy)-6,7-dihydro-pyrimido[6,1-a]isoquinolin-4-one]: the IC50 fell in the range of 500 to 1000 nM.
As for `O=c1nc(OCC2COc3ncccc3O2)cc2n1CCc1cc(-c3ccc4[nH]ncc4c3)ccc1-2` (centres unmarked) [compound 127, 2-(2,3-Dihydro-[1,4]dioxino[2,3-b]pyridin-2-ylmethoxy)-9-(1H-indazol-5-yl)-6,7-dihydro-pyrimido[6,1-a]isoquinolin-4-one], the IC50 was in the range of 0.01 to 100 nM.
In the case of `Cc1noc(COc2ccc3c(c2)CCn2c-3cc(OCC3COc4ncccc4O3)nc2=O)n1` (centres unmarked) [compound 135, 2-(2,3-dihydro-[1,4]dioxino[2,3-b]pyridin-2-ylmethoxy)-9-(3-methyl-[1,2,4]oxadiazol-5-ylmethoxy)-6,7-dihydro-pyrimido[6,1-a]isoquinolin-4-one], the IC50 lay within 0.01 to 100 nM.
As to `O=c1nc(OCC2CCCO2)cc2n1CCc1cc(-c3ccc(Cl)s3)ccc1-2` (centres unmarked) [compound 116, 9-(5-chloro-thiophen-2-yl)-2-(tetrahydro-furan-2-ylmethoxy)-6,7-dihydro-pyrimido[6,1-a]isoquinolin-4-one], the IC50 is 500 to 1000 nM.
For `CN(C)c1ccccc1-c1ccc2c(c1)CCn1c-2cc(OCC2COc3ncccc3O2)nc1=O` (centres unmarked) [compound 130, 2-(2,3-Dihydro-[1,4]dioxino[2,3-b]pyridin-2-ylmethoxy)-9-(2-dimethylamino-phenyl)-6,7-dihydro-pyrimido[6,1-a]isoquinolin-4-one] the value was 100 to 500 nM; for `O=c1nc(OCC2COc3ncccc3O2)cc2n1CCc1cc(-c3cccnc3)ccc1-2` (centres unmarked) [compound 124, 2-(2,3-Dihydro-[1,4]dioxino[2,3-b]pyridin-2-ylmethoxy)-9-pyridin-3-yl-6,7-dihydro-pyrimido[6,1-a]isoquinolin-4-one], 0.01 to 100 nM; for `Cc1cccc(COc2ccc3c(c2)CCn2c-3cc(OCC3CCCO3)nc2=O)c1` (centres unmarked) [compound 34, 9-(3-methyl-benzyloxy)-2-(tetrahydro-furan-2-ylmethoxy)-6,7-dihydro-pyrimido[6,1-a]isoquinolin-4-one], 100 to 500 nM.
With `O=c1nc(OCC2CCCO2)cc2n1CCc1cc(OCc3cccc4ccccc34)ccc1-2` (centres unmarked) [compound 38, 9-(naphthalen-1-ylmethoxy)-2-(tetrahydro-furan-2-ylmethoxy)-6,7-dihydro-pyrimido[6,1-a]isoquinolin-4-one], the IC50 lay within 500 to 1000 nM.
As to `O=c1nc(OCC2COc3ncccc3O2)cc2n1CCc1cc(C#CCCO)ccc1-2` (centres unmarked) [compound 133, 2-(2,3-dihydro-[1,4]dioxino[2,3-b]pyridin-2-ylmethoxy)-9-(4-hydroxy-but-1-ynyl)-6,7-dihydro-pyrimido[6,1-a]isoquinolin-4-one], the IC50 was 0.01 to 100 nM.
Consider `NC(=O)c1cccc(-c2ccc3c(c2)CCn2c-3cc(OCC3COc4ncccc4O3)nc2=O)c1` (centres unmarked) [compound 129, 3-[2-(2,3-Dihydro-[1,4]dioxino[2,3-b]pyridin-2-ylmethoxy)-4-oxo-6,7-dihydro-4H-pyrimido[6,1-a]isoquinolin-9-yl]-benzamide], for which the IC50 fell in the range of 0.01 to 100 nM.

These data come from US9708312B2, “Dihydropyrimidinoisoquinolinones and pharmaceutical compositions thereof for the treatment of inflammatory disorders (GPR84 antagonists)” (GALAPAGOS NV, priority 2012, dated 2017).
